The series deals with CCRIS mutagenicity, Ames/micronucleus/aberration tests. Nature of the series: CCRIS mutagenicity studies.
[1] abbreviates: Test System: AMES SALMONELLA TYPHIMURIUM, Strain/Indicator: TA98, Metabolic Activation: HAMSTER, LIVER, S-9, AROCLOR 1254 (10%), Method: PREINCUBATION
Setting [2] is: Test System: AMES SALMONELLA TYPHIMURIUM, Strain/Indicator: TA98, Metabolic Activation: NONE, Method: PREINCUBATION
Setting [3] is: Test System: AMES SALMONELLA TYPHIMURIUM, Strain/Indicator: TA98, Metabolic Activation: NONE, Method: STANDARD PLATE.
Setting [4] is: Test System: AMES SALMONELLA TYPHIMURIUM, Strain/Indicator: TA98, Metabolic Activation: RAT, LIVER, S-9, AROCLOR 1254 (10%), Method: PREINCUBATION
Setting [5] is: Test System: AMES SALMONELLA TYPHIMURIUM, Strain/Indicator: TA98, Metabolic Activation: RAT, LIVER, S-9, AROCLOR 1254, Method: STANDARD PLATE.
Where [6] appears, read: Test System: AMES SALMONELLA TYPHIMURIUM, Strain/Indicator: TA100, Metabolic Activation: HAMSTER, LIVER, S-9, AROCLOR 1254 (10%), Method: PREINCUBATION
[7] abbreviates: Test System: AMES SALMONELLA TYPHIMURIUM, Strain/Indicator: TA100, Metabolic Activation: NONE, Method: PREINCUBATION
Where [8] appears, read: Test System: AMES SALMONELLA TYPHIMURIUM, Strain/Indicator: TA100, Metabolic Activation: NONE, Method: STANDARD PLATE.
Where [9] appears, read: Test System: AMES SALMONELLA TYPHIMURIUM, Strain/Indicator: TA100, Metabolic Activation: RAT, LIVER, S-9, AROCLOR 1254 (10%), Method: PREINCUBATION
[10] abbreviates: Test System: AMES SALMONELLA TYPHIMURIUM, Strain/Indicator: TA100, Metabolic Activation: RAT, LIVER, S-9, AROCLOR 1254, Method: STANDARD PLATE.
[11] abbreviates: Test System: AMES SALMONELLA TYPHIMURIUM, Strain/Indicator: TA1535, Metabolic Activation: HAMSTER, LIVER, S-9, AROCLOR 1254 (10%), Method: PREINCUBATION
[12] abbreviates: Test System: AMES SALMONELLA TYPHIMURIUM, Strain/Indicator: TA1535, Metabolic Activation: NONE, Method: PREINCUBATION
The mark [13] stands for this setting: Test System: AMES SALMONELLA TYPHIMURIUM, Strain/Indicator: TA1535, Metabolic Activation: NONE, Method: STANDARD PLATE.
The mark [14] stands for this setting: Test System: AMES SALMONELLA TYPHIMURIUM, Strain/Indicator: TA1535, Metabolic Activation: RAT, LIVER, S-9, AROCLOR 1254 (10%), Method: PREINCUBATION
Where [15] appears, read: Test System: AMES SALMONELLA TYPHIMURIUM, Strain/Indicator: TA1535, Metabolic Activation: RAT, LIVER, S-9, AROCLOR 1254, Method: STANDARD PLATE.
Where [16] appears, read: Test System: AMES SALMONELLA TYPHIMURIUM, Strain/Indicator: TA1537, Metabolic Activation: HAMSTER, LIVER, S-9, AROCLOR 1254 (10%), Method: PREINCUBATION
Where [17] appears, read: Test System: AMES SALMONELLA TYPHIMURIUM, Strain/Indicator: TA1537, Metabolic Activation: NONE, Method: PREINCUBATION
Setting [18] is: Test System: AMES SALMONELLA TYPHIMURIUM, Strain/Indicator: TA1537, Metabolic Activation: NONE, Method: STANDARD PLATE.
Setting [19] is: Test System: AMES SALMONELLA TYPHIMURIUM, Strain/Indicator: TA1537, Metabolic Activation: RAT, LIVER, S-9, AROCLOR 1254 (10%), Method: PREINCUBATION
Where [20] appears, read: Test System: AMES SALMONELLA TYPHIMURIUM, Strain/Indicator: TA1537, Metabolic Activation: RAT, LIVER, S-9, AROCLOR 1254, Method: STANDARD PLATE.
The mark [21] stands for this setting: Test System: AMES SALMONELLA TYPHIMURIUM, Strain/Indicator: TA1538, Metabolic Activation: NONE, Method: STANDARD PLATE.
Where [22] appears, read: Test System: AMES SALMONELLA TYPHIMURIUM, Strain/Indicator: TA1538, Metabolic Activation: RAT, LIVER, S-9, AROCLOR 1254, Method: STANDARD PLATE.

Active and inactive are the calls of the source. The rule behind the calls is not given here.

For the compound `Clc1nc2ccccc2nc1Cl`, the mutagenic call reads like this: under setting [1], “inactive; negative”; (Test System: AMES SALMONELLA TYPHIMURIUM, Strain/Indicator: TA98, Metabolic Activation: HAMSTER, LIVER, S-9, AROCLOR 1254, Method: STANDARD PLATE) “inactive; negative”; under setting [2], “inactive; negative”; under setting [3], “inactive; negative”; under setting [4], “inactive; negative”; under setting [5], “inactive; negative”. The mutagenic call reads like this: under setting [6], “inactive; negative”; (Test System: AMES SALMONELLA TYPHIMURIUM, Strain/Indicator: TA100, Metabolic Activation: HAMSTER, LIVER, S-9, AROCLOR 1254, Method: STANDARD PLATE) “inactive; negative”; under setting [7], “inactive; negative”; under setting [8], “inactive; negative”; under setting [9], “inactive; negative”; under setting [10], “inactive; negative”. For the same compound, the mutagenic call under setting [11] is “inactive; negative”; the mutagenic call (Test System: AMES SALMONELLA TYPHIMURIUM, Strain/Indicator: TA1535, Metabolic Activation: HAMSTER, LIVER, S-9, AROCLOR 1254, Method: STANDARD PLATE) was “inactive; negative”; the mutagenic call under setting [12] was “inactive; negative”; the mutagenic call under setting [13] was “inactive; negative”; the mutagenic call under setting [14] is “inactive; negative”; the mutagenic call under setting [15] is “inactive; negative”. The mutagenic call was “inactive; negative” under setting [16]; “inactive; negative” (Test System: AMES SALMONELLA TYPHIMURIUM, Strain/Indicator: TA1537, Metabolic Activation: HAMSTER, LIVER, S-9, AROCLOR 1254, Method: STANDARD PLATE); “inactive; negative” under setting [17]; “inactive; negative” under setting [18]; “inactive; negative” under setting [19]; “inactive; negative” under setting [20]. Moreover, the mutagenic call reads like this: (Test System: AMES SALMONELLA TYPHIMURIUM, Strain/Indicator: TA1538, Metabolic Activation: HAMSTER, LIVER, S-9, AROCLOR 1254, Method: STANDARD PLATE) “inactive; negative”; under setting [21], “inactive; negative”; under setting [22], “inactive; negative”; (Test System: MOUSE LYMPHOMA, Strain/Indicator: L5178Y (TK+/TK-), Metabolic Activation: NONE, Method: SUSPENSION/PLATE) “active; positive. reevaluation of results: equivocal”; (Test System: MOUSE LYMPHOMA, Strain/Indicator: L5178Y (TK+/TK-), Metabolic Activation: RAT, LIVER, S-9, AROCLOR 1254, Method: SUSPENSION/PLATE) “active; positive. reevaluation of results: positive”.
For the compound `CC(C)COC(=O)c1ccccc1N`, the mutagenic call by setting is: under setting [1], “inactive; negative”; under setting [2], “inactive; negative”; under setting [4], “inactive; negative”; under setting [6], “inactive; negative”; under setting [7], “inactive; negative”; under setting [9], “inactive; negative”. Further, the mutagenic call runs as follows: under setting [11], “inactive; negative”; under setting [12], “inactive; negative”; under setting [14], “inactive; negative”; under setting [16], “inactive; negative”; under setting [17], “inactive; negative”; under setting [19], “inactive; negative”.
Consider `CC1NC(C(=O)O)Cc2c1[nH]c1ccccc21` (stereo unspecified), for which the mutagenic call (Test System: AMES SALMONELLA TYPHIMURIUM, Strain/Indicator: TA97, Metabolic Activation: NONE, Method: STANDARD PLATE) was “inactive; negative”; the mutagenic call (Test System: AMES SALMONELLA TYPHIMURIUM, Strain/Indicator: TA97, Metabolic Activation: RAT, LIVER, S-9, AROCLOR 1254, Method: STANDARD PLATE) is “inactive; negative”; the mutagenic call under setting [3] was “inactive; negative”; the mutagenic call under setting [5] was “inactive; negative”; the mutagenic call under setting [8] was “inactive; negative”; the mutagenic call under setting [10] was “inactive; negative”.
On to `Cc1ccc2nc3c4c(ccc3c(CO)c2c1)[C@H](O)[C@@H](O)C=C4`, for which the mutagenic call under setting [10] is “active; positive”.
For the compound `Cc1ccc(C(C)(C)C)c(O)c1C(O)c1ncc([N+](=O)[O-])n1C` (stereo unspecified), the mutagenic call under setting [3] was “inactive; negative”; the mutagenic call (Test System: AMES SALMONELLA TYPHIMURIUM, Strain/Indicator: TA 98, Metabolic Activation: RAT, LIVER, S-9, AROCLOR 1254, Method: STANDARD PLATE) was “inactive; negative”; the mutagenic call under setting [8] is “inactive; negative”; the mutagenic call under setting [10] is “inactive; negative”; the mutagenic call under setting [13] was “inactive; negative”; the mutagenic call under setting [15] was “inactive; negative”. In addition, the mutagenic call was “inactive; negative” under setting [18], “inactive; negative” under setting [20], “inactive; negative” under setting [21] and “inactive; negative” under setting [22].
With `O=C(/C=C/c1ccccc1)OC/C=C/c1ccccc1`, the mutagenic call is, setting by setting: (Test System: AMES SALMONELLA TYPHIMURIUM, Strain/Indicator: TA1538, Metabolic Activation: NONE, Method: PREINCUBATION) “active; positive”; (Test System: Mouse lymphoma, Strain/Indicator: L5178Y (tk+/tk-), Metabolic Activation: None, Method: Suspension/plate) “active; inconclusive (previous evaluation positive)”; (Test System: Mouse lymphoma, Strain/Indicator: L5178Y (tk+/tk-), Metabolic Activation: Rat, Liver, S-9, Aroclor 1254, Method: Suspension/plate) “active; positive”.

Source of the values: PubChem BioAssay AID1259407 (Chemical Carcinogenesis Research Information System (CCRIS), 2018).
